Earlier results in patent US5043107A, “Preparation small unilamellar vesicles including polyene antifungal antibiotics” (Vestar Research, Inc., priority 1989, dated 1991).

What was measured:
[1] = Tremblay et al.
[2] = mammals; clinical use at therapeutic dose levels
[3] = in vivo

Compound	acute 50% lethal dose (LD50) [1] [mg/kg]	toxicity [2]	host toxicity [3]
C[C@@H]1[C@H](O)[C@@H](C)/C=C/C=C/C=C/C=C/C=C/C=C/C=C/[C@H](O[C@@H]2O[C@H](C)[C@@H](O)[C@H](N)[C@@H]2O)C[C@@H]2O[C@](O)(C[C@@H](O)C[C@@H](O)[C@H](O)CC[C@@H](O)C[C@@H](O)CC(=O)O[C@H]1C)C[C@H](O)[C@H]2C(=O)O [Amphotericin B, amphotericin B]	2.3	acute hemolytic crisis and eventual kidney failure	–
liposomal Amphotericin B	–	–	decreased host toxicity
